The source made the active and inactive calls.
Legend:
[1] = insulin promoter down-regulators in MIN6 cells, imaging, high-content screening, mouse beta cells (AID 1628); type: functional
[2] = cytotoxicity in MIN6 insulinoma cells, dose response, cytotoxicity control, cell-based, mouse insulinoma (AID 2122); type: functional;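 further: confirmatory high-throughput counterscreen run to flag cytotoxic compounds; mouse MIN-6 beta cells carrying an insulin promoter eGFP reporter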
[3] = cytotoxicity in HPDE-C7 cells, cell-based, fluorescence, HTS (AID 430); type: functional; settings: Homo sapiens
[4] = cytotoxicity in KRAS-transformed pancreatic duct cells, primary screen, cell-based, fluorescence, HTS (AID 431); type: functional; settings: Homo sapiens;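 further: cell line used: HPDE-C7K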
[5] = growth suppression of PTEN-null colon cells, dose response, cell-based, HCT116 PTEN knockout (AID 1047); type: functional;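 further: HCT116 colon tumor cells with PTEN knocked out; cells exposed to compound for 60 hours before readout; potency for loss of cell viability measured by luminescence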
[6] = growth suppression of beta-catenin-knockout colon cells, dose response, cell-based, HCT116, human colon tumor (AID 1045); type: functional;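 further: HCT116 colon tumor cells with beta catenin knocked out; cells exposed to compound for 60 hours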
[7] = target: Nonstructural protein 1 (Influenza A virus, UniProt Q194T2); type: functional, Influenza A virus (A/California/07/2009(H1N1))
Chain of Nonstructural protein 1 (Q194T2 whole entry): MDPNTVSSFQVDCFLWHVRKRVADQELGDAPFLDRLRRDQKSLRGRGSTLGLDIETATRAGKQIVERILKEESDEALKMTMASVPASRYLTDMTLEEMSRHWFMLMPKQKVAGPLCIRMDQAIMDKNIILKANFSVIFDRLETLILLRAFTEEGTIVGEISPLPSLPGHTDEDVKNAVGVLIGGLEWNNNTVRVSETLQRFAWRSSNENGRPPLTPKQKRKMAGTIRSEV

[8] = tested on: INS1; experiment: beta cell apoptosis inhibitors, cytokine rescue, dose response, luminescence, retest (AID 449756); type: functional, cell-based; settings: Rattus norvegicus;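 further: cell death triggered by IL-1 beta plus TNF-alpha plus IFN-gamma mixture; protective hits raise ATP signal compared with cytokine alone wells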
[9] = target: NAD-dependent protein deacylase sirtuin-5, mitochondrial (Homo sapiens, UniProt Q9NXA8); experiment: SIRT5 desuccinylase inhibitors, dose response, biochemical, fluorescence imaging, cherry-pick, set 5 (AID 720591);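 further: desuccinylation of succinyl peptide AMC substrate read as fluorescence after trypsin release; potency of inhibitors that lower fluorescence and may act on trypsin instead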
Chain of NAD-dependent protein deacylase sirtuin-5, mitochondrial (Q9NXA8 whole entry): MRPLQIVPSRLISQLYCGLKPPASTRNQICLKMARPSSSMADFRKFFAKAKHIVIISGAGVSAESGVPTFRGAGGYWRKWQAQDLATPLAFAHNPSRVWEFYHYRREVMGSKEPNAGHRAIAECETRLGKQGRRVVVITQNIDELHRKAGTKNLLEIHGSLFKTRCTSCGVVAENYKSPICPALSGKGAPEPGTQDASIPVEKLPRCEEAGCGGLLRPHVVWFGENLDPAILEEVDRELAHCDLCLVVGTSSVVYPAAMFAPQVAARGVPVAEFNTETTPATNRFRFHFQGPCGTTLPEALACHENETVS

[10] = target: Heat shock protein HSP 90-alpha (Homo sapiens, UniProt P07900); experiment: Luminescence-based dose response biochemical high throughput screening assay for inhibitors of the Heat Shock Protein 90 (HSP90). [Related pubchem assays: 1831 (Summary AID.), 1846 (Confirmation screen.), 1789 (Primary screen.)]
[11] = target: Voltage-gated inwardly rectifying potassium channel KCNH2 (Homo sapiens, UniProt Q12809); experiment: hERG protection from proarrhythmic block, potency, dose response, cell-based, thallium flux (AID 2121); type: ADME
Chain of Voltage-gated inwardly rectifying potassium channel KCNH2 (Q12809 whole entry): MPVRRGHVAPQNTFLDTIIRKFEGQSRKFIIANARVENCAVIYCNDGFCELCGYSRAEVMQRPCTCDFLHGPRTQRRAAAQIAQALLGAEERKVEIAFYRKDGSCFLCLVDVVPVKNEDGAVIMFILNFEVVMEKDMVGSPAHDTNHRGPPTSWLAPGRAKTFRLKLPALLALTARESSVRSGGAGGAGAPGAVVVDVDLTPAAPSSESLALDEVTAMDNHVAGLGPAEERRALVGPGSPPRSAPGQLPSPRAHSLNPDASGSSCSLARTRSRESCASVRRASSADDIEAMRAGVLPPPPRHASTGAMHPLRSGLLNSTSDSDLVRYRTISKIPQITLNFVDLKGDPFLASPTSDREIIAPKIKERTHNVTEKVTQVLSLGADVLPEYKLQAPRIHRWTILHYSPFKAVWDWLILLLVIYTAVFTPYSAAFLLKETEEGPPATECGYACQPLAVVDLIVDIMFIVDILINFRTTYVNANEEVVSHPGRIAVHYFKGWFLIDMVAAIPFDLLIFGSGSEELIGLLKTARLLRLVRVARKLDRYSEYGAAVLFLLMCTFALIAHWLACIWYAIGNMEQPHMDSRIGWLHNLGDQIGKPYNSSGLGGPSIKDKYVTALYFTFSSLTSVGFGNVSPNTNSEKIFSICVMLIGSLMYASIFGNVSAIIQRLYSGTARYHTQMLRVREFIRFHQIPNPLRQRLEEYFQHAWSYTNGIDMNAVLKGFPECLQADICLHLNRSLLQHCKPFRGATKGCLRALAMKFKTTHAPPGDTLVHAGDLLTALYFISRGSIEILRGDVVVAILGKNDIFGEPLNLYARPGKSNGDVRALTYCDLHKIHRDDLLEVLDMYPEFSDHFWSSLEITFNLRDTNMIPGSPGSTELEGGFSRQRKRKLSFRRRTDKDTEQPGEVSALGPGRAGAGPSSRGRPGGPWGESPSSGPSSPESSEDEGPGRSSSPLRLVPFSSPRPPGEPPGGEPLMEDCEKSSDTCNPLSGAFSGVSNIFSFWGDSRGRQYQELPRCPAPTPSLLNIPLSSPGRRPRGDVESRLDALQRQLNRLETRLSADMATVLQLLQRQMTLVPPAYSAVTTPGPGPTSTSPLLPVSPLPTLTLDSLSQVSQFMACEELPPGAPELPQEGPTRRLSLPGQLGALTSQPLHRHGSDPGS

[12] = target: T1, Bcl-2-like protein 10 (Homo sapiens, UniProt Q9HD36); experiment: displacers of TR3 peptide from Bcl-B, primary screen, selectivity assay for Bfl-1 inhibitor project, biochemical, fluorescence polarization, FITC-TR3 peptide (AID 748);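 further: fluorescence polarization from a fluorescein-labelled TR3 peptide binding purified Bcl-B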
T1 sequence (Q9HD36 whole entry): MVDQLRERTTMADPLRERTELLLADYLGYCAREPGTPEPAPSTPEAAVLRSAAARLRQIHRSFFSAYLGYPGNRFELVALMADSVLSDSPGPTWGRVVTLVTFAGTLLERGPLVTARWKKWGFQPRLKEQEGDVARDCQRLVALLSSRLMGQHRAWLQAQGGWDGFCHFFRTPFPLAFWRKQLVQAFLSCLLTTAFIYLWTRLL

[13] = target: Estrogen receptor beta (Homo sapiens, UniProt Q92731); experiment: ERβ–SRC-3 coactivator interaction inhibitors, confirmation, orthogonal assay, biochemical, ELISA, streptavidin-HRP readout (AID 1060)
Chain of Estrogen receptor beta (Q92731 whole entry): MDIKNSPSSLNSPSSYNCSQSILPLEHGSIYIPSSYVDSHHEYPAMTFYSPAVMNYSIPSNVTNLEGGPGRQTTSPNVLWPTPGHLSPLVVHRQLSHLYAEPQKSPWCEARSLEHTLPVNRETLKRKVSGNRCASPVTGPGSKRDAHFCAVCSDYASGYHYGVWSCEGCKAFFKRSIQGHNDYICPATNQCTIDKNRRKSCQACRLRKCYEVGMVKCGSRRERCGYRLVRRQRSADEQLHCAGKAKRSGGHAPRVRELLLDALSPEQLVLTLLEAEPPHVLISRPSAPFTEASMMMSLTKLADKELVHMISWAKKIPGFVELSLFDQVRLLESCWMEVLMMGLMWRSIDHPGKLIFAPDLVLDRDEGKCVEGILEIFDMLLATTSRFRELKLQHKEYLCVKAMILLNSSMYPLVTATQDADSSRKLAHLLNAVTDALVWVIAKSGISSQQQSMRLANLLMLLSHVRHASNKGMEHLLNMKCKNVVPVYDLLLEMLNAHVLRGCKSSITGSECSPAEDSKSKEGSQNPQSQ

[14] = Luminescence-based cell-based high throughput dose response assay to identify activators of the DAF-12 from the parasite S. stercoralis (ssDAF-12).; type: functional
[15] = target: T2, Oxysterols receptor LXR-beta (Homo sapiens, UniProt P55055); experiment: LXR agonists, Gal4 luciferase reporter, dose response, counter-screen for ssDAF-12 agonist project, cell-based, luminescence, HEK293, S. stercoralis campaign (AID 720737); type: functional; settings: read-out: IC50 (the source's name)
T2 sequence (P55055 whole entry): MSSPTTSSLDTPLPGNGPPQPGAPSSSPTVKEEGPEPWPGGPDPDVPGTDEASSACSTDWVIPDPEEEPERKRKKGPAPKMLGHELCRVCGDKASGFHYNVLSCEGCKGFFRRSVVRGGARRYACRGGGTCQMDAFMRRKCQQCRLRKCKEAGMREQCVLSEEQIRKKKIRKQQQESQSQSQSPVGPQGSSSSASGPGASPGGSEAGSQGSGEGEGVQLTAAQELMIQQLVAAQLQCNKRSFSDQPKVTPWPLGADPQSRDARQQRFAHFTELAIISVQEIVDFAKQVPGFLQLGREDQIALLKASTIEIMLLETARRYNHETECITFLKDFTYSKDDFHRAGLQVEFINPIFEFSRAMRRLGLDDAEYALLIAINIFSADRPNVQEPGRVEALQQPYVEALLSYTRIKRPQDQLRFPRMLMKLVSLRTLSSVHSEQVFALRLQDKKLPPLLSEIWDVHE

[16] = luciferase reporter signal reduction – luminescence, H4-C neuroglioblastoma cells, dose response (AID 2458); type: functional, cell-based;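 further: H4 neuroglioblastoma cells stably carrying a luciferase reporter gene fusion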
[17] = cells; type: functional, cell-based
[18] = inhibitors of SNCA 5'UTR-driven reporter translation, confirmation, H4 neuroglioma cells, luminescence (AID 1988); type: functional, cell-based
[19] = inhibitors of SNCA 5'UTR-driven translation, confirmation, luminescence, H4 neuroglioblastoma cells, dose confirmation (AID 2454); type: functional, cell-based;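 further: H4 neuroglioblastoma cells carrying an alpha-synuclein 5'UTR luciferase reporter; potency for inhibition of the luciferase signal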
[20] = tested on: Jurkat; experiment: antigen receptor-induced NF-kB inhibitors, dose response, Jurkat, luciferase reporter, luminescence, B- and T-cell (AID 489004); type: functional, cell-based; settings: Homo sapiens;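 further: NF-kB luciferase reporter Jurkat cells stimulated with PMA plus ionomycin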
[21] = cytotoxicity in HEK-293T NF-kB-Luc cells, dose response, cytotoxicity control for B/T-cell NF-kB inhibitor project, cell-based, uHTS hits (AID 489019); type: functional;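 further: IC50 reflects cytotoxicity as loss of cell viability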
[22] = inhibitors of HIV Env-driven cell fusion, dose response, cherry-pick (AID 652057); type: functional, cell-based
[23] = ZM109 Env clade C HIV-1 fusion inhibitors, dose response, HeLa effector, CEM target cells, luciferase, cherry-pick (AID 652058); type: functional, cell-based
[24] = off-target signal loss in HeLa-CEM21 co-culture – HeLa F-luc CTL cells, cherry-picked, counter-screen for HIV-1 Env fusion inhibitor project, dose response (AID 652040); type: functional, cell-based;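 further: potency for signal decrease marking cytotoxic or nonspecific inhibition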
[25] = inhibitors of clade B AD8 Env fusion, dose response, cell-based, cherry-pick (AID 652062); type: functional;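 further: luciferase signal from cell-cell fusion driven by HIV-1 clade B AD8 Env; potency is for inhibitors of fusion seen as a drop in luminescence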
[26] = LGR2 antagonists, dose response, cell-based, HEK293, CRE-luciferase reporter, cherry pick, set 2 (AID 743343); type: functional;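 further: transfected cells were stimulated with diluted bursicon conditioned medium after compound addition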
[27] = MC4R antagonists, dose response, counter-screen for LGR2 antagonist project, cell-based, plate reader, cherry pick (AID 743444); type: functional;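 further: transfected HEK 293 cells stimulated with alpha-MSH peptide; potency of inhibitors of the alpha-MSH evoked signal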
[28] = target: T3, Tyrosine-protein phosphatase non-receptor type 7 (Homo sapiens, UniProt P35236); experiment: inhibitors of human HePTP phosphatase, […], biochemical, absorbance, leukemia target (AID 521); type: functional
T3 sequence (P35236 whole entry): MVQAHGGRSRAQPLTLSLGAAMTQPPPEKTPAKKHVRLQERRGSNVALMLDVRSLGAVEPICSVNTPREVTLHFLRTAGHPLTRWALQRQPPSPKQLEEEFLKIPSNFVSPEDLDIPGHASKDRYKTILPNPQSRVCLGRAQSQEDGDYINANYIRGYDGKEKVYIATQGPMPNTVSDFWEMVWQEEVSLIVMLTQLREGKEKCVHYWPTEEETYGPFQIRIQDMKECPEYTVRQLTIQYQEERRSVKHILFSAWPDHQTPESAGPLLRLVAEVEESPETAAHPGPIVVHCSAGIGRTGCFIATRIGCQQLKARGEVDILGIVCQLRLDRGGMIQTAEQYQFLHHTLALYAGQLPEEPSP

[29] = target: Estrogen receptor (Homo sapiens, UniProt P03372);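 further: potency for inhibiting coactivator peptide recruitment to the receptor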
Chain of Estrogen receptor (P03372 whole entry): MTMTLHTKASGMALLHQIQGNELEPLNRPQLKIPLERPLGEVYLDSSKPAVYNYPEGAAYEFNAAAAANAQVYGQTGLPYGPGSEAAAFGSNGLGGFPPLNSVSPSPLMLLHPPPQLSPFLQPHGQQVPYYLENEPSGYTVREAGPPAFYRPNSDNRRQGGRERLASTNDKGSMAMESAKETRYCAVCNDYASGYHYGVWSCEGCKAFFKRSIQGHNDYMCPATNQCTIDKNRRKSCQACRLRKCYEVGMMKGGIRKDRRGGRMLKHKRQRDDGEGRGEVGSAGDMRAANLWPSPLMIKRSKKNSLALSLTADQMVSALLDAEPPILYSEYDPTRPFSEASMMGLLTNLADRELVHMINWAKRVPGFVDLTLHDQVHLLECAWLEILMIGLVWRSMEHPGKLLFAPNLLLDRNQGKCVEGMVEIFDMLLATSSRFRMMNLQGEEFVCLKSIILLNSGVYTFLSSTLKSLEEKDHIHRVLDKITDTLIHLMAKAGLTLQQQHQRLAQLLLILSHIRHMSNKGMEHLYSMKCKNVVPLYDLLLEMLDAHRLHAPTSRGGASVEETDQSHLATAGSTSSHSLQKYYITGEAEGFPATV

With `CCOC(=O)C(C(C)=O)c1c(Br)c(O)c(O)c2c(C(=O)c3ccc(C)cc3)coc12` (stereo unspecified) the IC50 [1] was 4.26 µM (active), the IC50 [2] was 3.43 µM (active) and the EC50 [3] was 3.41 µM (active). For the same compound, the EC50 [4] was 3.75 µM (active), the EC50 [5] was 18.8 µM (active) and the EC50 [6] was 15.8 µM (active). The IC50 [7] was > 100 µM (active) and the AC50 [8] was 3.56 µM (active).
In the case of `O=S(=O)(c1ccc(NC2=NN=C(c3cc(F)ccc3F)CS2)cc1)N1CCOCC1`, the AC50 [9] is reported as > 30 µM (inactive).
In the case of `Cc1ccc(OCc2ccc(C(=O)O)o2)cc1C`, the IC50 [10] is reported as 1.75 µM (active).
With `CS(=O)(=O)c1sc(C(=O)NC(=S)Nc2ccc(OC(F)(F)F)cc2)c2c1C=CCC2` the EC50 [11] was 1.01 µM (active).
In the case of `COc1ccc(NC(=O)c2noc3c2CCC3)cc1`, the IC50 [12] is reported as 12.6 µM (active) and the IC50 [13] is reported as < 0.023 µM (not active).
With `COc1cc(SC)ccc1C(=O)Nc1ccc2c(c1)CCC2` the IC50 [14] was > 67.5 µM (inactive) and the EC50 [15] was > 67.5 µM (inactive).
In the case of `Cc1ccc(C(=O)CN2C(=O)c3ccccc3S2(=O)=O)cc1`, the EC50 [16] is reported as 0.263 µM (active), the EC50 [17] is reported as 0.315 µM (active) and the EC50 [18] is reported as < 0.1 µM (active). For the same compound, the IC50 [10] was 4.64 µM (active), the EC50 [19] was 0.363 µM (active) and the IC50 [20] was 1.57 µM (active). The IC50 [21] was > 80 µM (inactive), the AC50 [22] was 1.81 µM (active) and the AC50 [23] was 17.9 µM (active). For the same compound, the AC50 [24] was 3.11 µM (active), the AC50 [25] was 4.12 µM (active) and the AC50 [26] was 0.594 µM (active). The AC50 [27] was 0.548 µM (active).
In the case of `N=c1c2c3c(sc2ncn1CCN1CCOCC1)CCCC3`, the IC50 [28] is reported as > 100 µM (not active).
With `Cc1cc(NC(=O)CSc2nc3c(c(=O)n2CCc2ccccc2)SC(C)C3)no1` (stereo unspecified) the IC50 [29] was 33.6 µM (not active).
With `CCn1c(COc2ccccc2)nnc1SCC(=O)NC1CCCCC1` the IC50 [28] was > 100 µM (not active).
